Experimental data reported in article PMC4165891, “A Cell-Based High-Throughput Screen for Novel Chemical Inducers of Fetal Hemoglobin for Treatment of Hemoglobinopathies” (PLoS ONE, 2014).

How the values were obtained:
[1] = tested on: γ-globin promoter-firefly luciferase; experiment: γ-globin promoter-firefly luciferase induction in CID-dependent dual luc β-YAC BMCs (HTS and dose-response reconfirmation); type: cell-based, mouse; settings: for fold induction of firefly luciferase by positive control: 2 mM, 24 hours, over DMSO treated controls, primary HTS plates; for responsiveness of dual luc β-YAC BMCs to known γ-globin inducers: data not shown
Description: For HTS experiments, the dual luc β-YAC BMCs were seeded into 384-well plates (Greiner Bio-One, Monroe, NC) at a density of 10,000 cells/30 µl/well by Wellmate bulk dispenser (ThermoScientific Inc., Waltham, MA) in complete media containing the CID, CL-COB-II-293 (synthesized by the University of Kansas COBRE CCET Core C Synthesis Lab, commonly called AP20187). The CID-dependent dual luc β-YAC BMCs were responsive to known γ-globin inducers including valproic acid, sodium butyrate, valeric acid and hydroxyurea (data not shown). Sodium butyrate (2 mM) was selected as the positive control for screening, as a consistent 5–6 fold increase in firefly luciferase activity was obtained in four independent experiments with four different passage numbers. Since both the cell viability and luciferase induction was unaffected at DMSO concentrations below 0.5%, the compound libraries were screened at 10 µM concentration in 0.35% DMSO. Compounds were transferred acoustically using a Labcyte Echo 550 dispenser (Labcyte Inc., Sunnyvale, CA). Based on previous optimizations, 10,000 cells/well in IMDM containing CL-COB-II-293 (100 nM) were added to the wells of 384-well assay plates. The negative (n = 16, DMSO) and positive (n = 16, sodium butyrate, 2 mM) controls were added to the first two columns of each plate to assure uniformity across plates and screening batches. The cells were exposed to compounds for 24 hours at 37°C, 5% CO2 in a 95% humidified incubator. After 24 hours incubation, Steady Glo luciferase detection reagent (Promega, Madison, WI) was used for cell lysis and generation of a luminescent signal, proportional to γ-globin promoter driven firefly luciferase reporter expression. The luminescence intensities were read 30 minutes later on a Tecan Safire2 microplate reader (Tecan, Männedorf, Switzerland). The luminescence values were used for calculating fold-induction of luciferase over DMSO treated controls. The controls were used to calculate a Z′ factor value for each plate, a measure of screening assay quality.
The active compounds from the primary screen were cherry-picked from mother plates and retested for firefly luciferase induction in an eight concentration dose-response assay (two fold dilution starting at 30 µM). The fold-induction values from dose-response curves were used for preliminary scaffold analysis and clustering using the Tripos Selector program and analyzed using the Jarvis Patrick routine, using default parameters [The Tripos Associates (Cetara), St. Louis, MO]. From each preliminary cluster, the largest conserved substructure present in at least half of the cluster members was identified.
Some of the primary screen active compounds were repurchased and tested for activity in cell-based assays using the primary screening reporter cells in a ten concentration dose-response. Both firefly luciferase induction (γ-globin promoter activation using the One-Glo luciferase detection system; Promega, Madison, WI), and Renilla luciferase induction (β-globin induction the using Renilla-Glo Luciferase detection system; Promega, Madison, WI), were measured for specificity of compound activity. The cytotoxicity of the compounds was measured after 24 hours in the same cells using Cell-Titer Glo reagent (Promega, Madison, WI). The compounds were also tested in a biochemical screen for any inhibition to purified firefly luciferase enzyme (15 nM).

[2] = tested on: human γ-globin gene expression; experiment: qRT-PCR of γ-globin mRNA in CID-dependent wild-type β-YAC BMCs; type: cell-based, mouse; settings: 48 hours; NaB 2 mM; #7 50 µM; #42 15 µM; #87 100 µM; #125 30 µM; #157 100 µM; #208 25 µM
From the text: (§1) Human erythroid progenitors were generated in vitro from adult CD34^+ stem cells (STEMCELL Technologies, Inc., Vancouver, Canada) using a 2-stage culture system that achieves terminal erythroid differentiation. Standard, but variant, methods for quantitative reverse transcription-PCR (qRT-PCR) and flow-activated cell sorting (FACS) were employed for the two cell types as detailed in File S1. ELISA was used to measure HbF in CID-dependent wild-type β-YAC BMCs as described in the supplement.
Quantitative reverse transcription-PCR (qRT-PCR). In each experiment, treated and non-treated samples were analyzed in duplicate, 48 hours post-treatment, using SYBR Green dye in a CFX96 instrument (Bio-Rad, Hercules, CA). Expression of γ- and β-globin was calculated using relative quantification, as previously described, [7], using samples from β-YAC transgenic mice as controls. PCR primer sequences utilized for expression studies were: Hu-γ1, 5’-[…]-3’; Hu-γ2, 5’-[…]-3’; β-globin FWD, 5’-[…]-3’; β-globin REV, 5’-[…]-3’; Mo-Gapdh FWD, 5’-[…]-3’; Mo-Gapdh REV, 5’-[…]-3’; Mo-α-globin FWD, 5’-[…]-3’; Mo-α-globin REV, 5’-[…]-3’. Murine Gapdh and α-globin gene expression were used as internal controls for the human β-like globin gene expression. Mean and standard error of the mean were calculated. The Student’s t-test was used to determine statistical significance at P < 0.05 and P < 0.01.

[3] = tested on: γ-globin (HbF)-expressing F cells; experiment: FACS analysis of HbF (F cells) in CID-dependent wild-type β-YAC BMCs; type: cell-based, mouse; settings: 48 hours; NaB 2 mM; #7 50 µM; #42 15 µM; #87 100 µM; #125 30 µM; #157 100 µM; #208 25 µM; untreated 0.7%
From the text: as §1
Flow-activated cell sorting (FACS). Detection of HbF in CID-dependent wild-type β-YAC BMCs was performed by flow cytometric analysis. Briefly, 3 x 10^6 cells were cultured for 48 hours with or without treatment. Cells were washed in PBS and fixed in 1 ml 4% fresh paraformaldehyde (Sigma Aldrich, Saint Louis, MO). The cells were centrifuged, the supernatant discarded, and the pellets were resuspended in 1 ml ice cold acetone:methanol (4:1) for 1 minute. Cells were washed twice in ice-cold PBS/0.1% BSA and resuspended in 100 μl PBS/0.1% BSA/0.01% Tween 20 (PBT). One μg sheep anti-human HbF FITC-conjugated antibody (A80-136F, Bethyl Laboratories, Montgomery, TX) in 100 μl PBT was added to the cell suspension and incubated for 40 minutes at room temperature. […] Cells were analyzed using a BD LSRII Flow Cytometer (BD Biosciences, San Jose, CA) with a 530/30 nm (FITC/GFP) emission filter . […]

[4] = tested on: γ-globin to β-globin (γ/β) ratio; experiment: qRT-PCR γ-globin/β-globin mRNA ratio in human primary erythroid progenitors; type: cell-based; settings: added day 8 for 48 hours; NaB 2 mM; #7 50 µM; #42 15 µM; #87 100 µM; #208 25 µM (Figure 6 legend)
From the text: as §1
Human primary erythroid cell culture. Human erythroid progenitors were generated in vitro from adult CD34^+ stem cells (STEMCELL Technologies, Inc., Vancouver, Canada) using a 2-stage culture system that achieves terminal erythroid differentiation. […] Cell viability was monitored by trypan blue (0.4%) exclusion. […]
Quantitative reverse transcription-PCR (qRT-PCR). The mRNA levels of γ-globin, β-globin, and glyceraldehyde-3-phosphate dehydrogenase (GAPDH) were measured as previously published, [10]. […] The γ-globin, β-globin, and GAPDH mRNA levels were quantitated by Sybergreen qPCR using an iCycler iQ instrument (BioRad, Hercules, CA); standard curves were generated using a Topo7-based plasmid carrying the γ-globin, β-globin, or GAPDH cDNAs (Topo7-γ-globin, Topo7-β-globin, or Topo7-GAPDH, respectively).

HbF-positive cells = experiment: FACS analysis of HbF-positive cells in human primary erythroid progenitors; type: cell-based; settings: 48 hours
From the text: as §1
Human primary erythroid cell culture. Human erythroid progenitors were generated in vitro from adult CD34^+ stem cells (STEMCELL Technologies, Inc., Vancouver, Canada) using a 2-stage culture system that achieves terminal erythroid differentiation. Briefly, CD34^+ stem cells (500,000) were grown in First medium consisting of IMDM containing human AB serum, Interleukin-3 (IL-3,10 ng/ml), stem cell factor (SCF, 10 ng/ml) and erythropoietin (EPO, 2 IU/ml). On day 7 the erythroblasts were placed in Second medium consisting of 2 IU/mL erythropoietin for the duration of culture. […] Cell viability was monitored by trypan blue (0.4%) exclusion. […]
Flow-activated cell sorting (FACS). […] The labeled cells were analyzed using a Becton-Dickson LSR-II flow cytometer (BD Biosciences, San Jose, CA). […]

Which “fold induction of firefly luciferase by positive control” value [1] does the source give for `CCCC(=O)[O-].[Na+]` [Sodium butyrate] here?
The value was 5–6 fold.

What about the “fold induction of firefly luciferase by positive control” value ([1]; listed as sodium butyrate) of the same molecule?
The value was 6.3±0.7 fold.

And the “responsiveness of dual luc β-YAC BMCs to known γ-globin inducers” value (“responsiveness of dual luc β-YAC BMCs” for short) [1]?
Its value is “responsive”.

And the “γ-globin expression fold induction (qPCR)” value [2]?
Its value is 9.9 fold.

And the “% F cells (FACS, gate P3)” value [3]?
Its value is 15.9%.

What about the “γ-globin to β-globin (γ/β) mRNA ratio fold increase compared to DMSO” value [4] of the same molecule?
The value was 1.8 fold.

What about the “fold increase in % HbF-positive cells” value (HbF-positive cells) of the same molecule?
The value was 7 fold.

With `CCCCC(=O)O` [valeric acid] as the molecule, how does the “responsiveness of dual luc β-YAC BMCs” value [1] read?
Its value is “responsive”.

Which “responsiveness of dual luc β-YAC BMCs” value [1] does the source give for `CCCC(CCC)C(=O)O` [valproic acid] here?
Its value is “responsive”.

`NC(=O)NO` [hydroxyurea] was tested. Which “responsiveness of dual luc β-YAC BMCs” value [1] did it give?
Its value is “responsive”.
